Assay in all cases: PKC isoform translocation in A549-tGFP cells
Common to all, as to type: cell-based
What all share (set-up): host or cells: A549
Conditions in all cases: 60 minutes

In one assay the target is PKC-β1 (Homo sapiens, UniProt P05771). On the procedure: (§1) Using these findings we embarked on new designs for DAG-lactones with additional substituents from the ester moiety in combination with a few olefin substituents. A description of this effort is reported elsewhere.
(§2) Cellular translocation of PKC isoforms upon activation was determined in 8 A549 cell lines, each expressing a single PKC isoform fused to tGFP (PhenoVista Biosciences). Cells were plated in 384-well plates (80 μL/well) at 10^5 cells/mL in RPMI with 10% FBS and rested overnight. PKC agonist(s) were serially diluted at 1:3 steps in DMSO and added to the cells. After 60 minutes in an incubator at 37 °C, 5% CO2, cells were stained with Hoechst-33342 and fixed with 2% paraformaldehyde for 30 minutes at 4 °C. Cells were then stained with wheat germ agglutinin conjugated to AlexaFluor647 (WGA-647) for 10 minutes at 4 °C, washed to remove excess dye and imaged with Cellomics Array Scan (Thermo Fisher) at room temperature (RT). Images were analyzed using Cellomics automated image analysis algorithm. Plasma membrane translocation was quantified using the ratio between the average fluorescence in the areas at the cell edge defined by WGA-647 and the cytoplasm region.

For the next assay, the target named is PKC-β2 (Homo sapiens, UniProt P05771). On the procedure: as §1, §2
Sequence of PKC-β2 (P05771 1-673 isoform P05771-2): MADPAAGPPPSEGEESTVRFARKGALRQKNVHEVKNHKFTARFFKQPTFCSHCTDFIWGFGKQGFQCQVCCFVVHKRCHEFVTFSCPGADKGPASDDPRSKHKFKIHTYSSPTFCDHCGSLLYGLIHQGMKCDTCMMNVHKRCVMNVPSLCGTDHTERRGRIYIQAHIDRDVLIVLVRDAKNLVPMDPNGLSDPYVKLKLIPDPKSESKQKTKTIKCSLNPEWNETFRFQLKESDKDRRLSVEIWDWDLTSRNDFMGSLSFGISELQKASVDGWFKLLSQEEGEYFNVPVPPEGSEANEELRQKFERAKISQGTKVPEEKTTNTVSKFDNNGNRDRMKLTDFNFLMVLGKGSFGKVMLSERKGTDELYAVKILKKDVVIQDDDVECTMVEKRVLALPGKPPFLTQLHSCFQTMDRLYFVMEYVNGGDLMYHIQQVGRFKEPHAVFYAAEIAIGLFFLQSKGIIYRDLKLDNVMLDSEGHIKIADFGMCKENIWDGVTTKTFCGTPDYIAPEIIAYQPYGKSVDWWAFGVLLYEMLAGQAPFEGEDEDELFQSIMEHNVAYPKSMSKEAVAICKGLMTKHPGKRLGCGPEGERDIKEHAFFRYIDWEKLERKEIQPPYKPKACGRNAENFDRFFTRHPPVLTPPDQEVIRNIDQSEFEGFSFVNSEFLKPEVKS
For another assay, the target named is PKC-γ (Homo sapiens, UniProt P05129). The method, then:
as §1, §2

In general, EC50 refers to the concentration needed to bring the measured effect to its halfway point.

Sequence of PKC-β1 (P05771 whole entry, the tested form may be a part, canonical isoform): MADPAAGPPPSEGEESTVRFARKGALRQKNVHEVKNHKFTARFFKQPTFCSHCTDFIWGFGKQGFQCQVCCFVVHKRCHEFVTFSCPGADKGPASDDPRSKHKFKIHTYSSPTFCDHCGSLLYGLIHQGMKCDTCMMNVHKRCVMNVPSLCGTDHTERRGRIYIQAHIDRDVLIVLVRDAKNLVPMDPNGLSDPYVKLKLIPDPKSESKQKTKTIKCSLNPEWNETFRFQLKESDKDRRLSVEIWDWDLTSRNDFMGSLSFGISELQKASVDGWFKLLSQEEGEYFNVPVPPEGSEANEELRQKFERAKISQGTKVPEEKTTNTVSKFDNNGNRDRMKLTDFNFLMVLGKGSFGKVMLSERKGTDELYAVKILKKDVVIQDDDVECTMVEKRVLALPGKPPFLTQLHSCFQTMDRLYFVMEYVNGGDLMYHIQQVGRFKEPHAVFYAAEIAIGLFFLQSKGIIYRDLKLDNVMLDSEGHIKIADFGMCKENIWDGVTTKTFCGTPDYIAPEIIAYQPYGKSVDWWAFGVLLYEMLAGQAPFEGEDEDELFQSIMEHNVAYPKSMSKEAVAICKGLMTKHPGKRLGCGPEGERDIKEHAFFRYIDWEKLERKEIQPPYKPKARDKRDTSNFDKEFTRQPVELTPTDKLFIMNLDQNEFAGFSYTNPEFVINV

`Cc1ccc(C#Cc2ccc3oc(CC(C)(C)C(=O)OCC4(CO)CC(=CCC(CC(C)C)CC(C)C)C(=O)O4)cc3c2)cc1` (stereo not drawn) [C-232A]: the EC50 worked out at 3.28 µM on PKC-β1, 2.26 µM at PKC-β2 and 11.5 µM at PKC-γ.
